Patent US6525001B1, “Substituted pyrimidine and pyridine herbicides” (Mid-American Commercialization Corporation, priority 1997, dated 2003)

How the values were obtained:
Assay type in all cases: in vivo
Set-up in all cases: key: 0 is no effect; 10 is complete control
rice (Oryza sativa) = test: Test B flood test
Procedure, shortened: (§1)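 Read-out is a visual response score from 0 (no effect) to 10 (complete control), assigned by comparison with untreated controls. Treatment was applied at the 2-leaf stage, and plants stayed in the greenhouse for twelve to sixteen days before scoring.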

[1] = test system: duck salad (Heteranthera limosa); test: Test B flood test
Procedure, shortened: as §1

[2] = test system: smallflower flatsedge (Cyperus difformis); test: Test B flood test
Procedure, shortened: as §1

[3] = test system: bamyardgrass (Echinochloa crus-galli); test: Test B flood test
Procedure, shortened: as §1

[4] = test system: blackgrass (Alopecurus myosuroides); test: Test B pre-/postemergence; conditions: for Plant response rating, Blackgrass: Preemergence; for Blackgrass plant response rating: Postemergence
Procedure, shortened: (§2)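 Compounds in a surfactant-containing, non-phytotoxic solvent blend are applied to freshly planted seed (preemergence) and, concurrently, to seedlings of 2 to 18 cm at 1–4 leaves (postemergence). Plants stay in the greenhouse twelve to sixteen days and are then scored visually from 0 (no effect) to 10 (complete control).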

[5] = test system: broadleaf signalgrass (Brachiaria decumbens); test: Test B pre-/postemergence
Procedure, shortened: as §2

[6] = test system: wheat (Triticum aestivum); test: Test B pre-/postemergence; conditions: for Plant response rating, Wheat: Preemergence; for Wheat plant response rating: Postemergence
Procedure, shortened: as §2

[7] = test system: bedstraw (Galium aparine); test: Test B pre-/postemergence; conditions: for Plant response rating, Bedstraw: Preemergence; for Bedstraw plant response rating: Postemergence
Procedure, shortened: as §2

corn (Zea mays) = test: Test B pre-/postemergence; conditions: for Plant response rating, Corn: Preemergence; for Corn plant response rating: Postemergence
Procedure, shortened: as §2

[8] = test system: momingglory (Ipomoea hederacea); test: Test B pre-/postemergence; conditions: for Plant response rating, Morningglory: Preemergence; for Morningglory plant response rating: Postemergence
Procedure, shortened: as §2

[9] = test system: velvetleaf (Abutilon theophrasti); test: Test B pre-/postemergence; conditions: for Velvetleaf plant response rating: Postemergence
Procedure, shortened: as §2

[10] = test system: giant foxtail (Setaria faberii); test: Test B pre-/postemergence; conditions: for Plant response rating, Giant foxtail: Preemergence; for Giant foxtail plant response rating: Postemergence
Procedure, shortened: as §2

[11] = test system: crabgrass (Digitaria sanguinalis); test: Test B pre-/postemergence; conditions: for Plant response rating, Crabgrass: Preemergence; for Crabgrass plant response rating: Postemergence
Procedure, shortened: as §2

[12] = test system: cocklebur (Xanthium strumarium); test: Test B pre-/postemergence; conditions: for Plant response rating, Cocklebur: Preemergence; for Cocklebur plant response rating: Postemergence
Procedure, shortened: as §2

soybean (Glycine max) = test: Test B pre-/postemergence; conditions: for Plant response rating, Soybean: Preemergence; for Soybean plant response rating: Postemergence
Procedure, shortened: as §2

[13] = test system: sugar beet (Beta vulgaris); test: Test B pre-/postemergence; conditions: for Plant response rating, Sugarbeets: Preemergence; for Sugarbeets plant response rating: Postemergence
Procedure, shortened: as §2

[14] = test system: pigweed (Amaranthus retroflexus); test: Test B pre-/postemergence; conditions: for Plant response rating, Redroot pigweed: Preemergence; for Redroot pigweed plant response rating: Postemergence
Procedure, shortened: as §2

rape (Brassica napus) = test: Test B pre-/postemergence; conditions: for Plant response rating, Rape: Preemergence; for Rape plant response rating: Postemergence
Procedure, shortened: as §2

[15] = test system: purple nutsedge (Cyperus rotundus); test: Test B pre-/postemergence; conditions: for Plant response rating, Nutsedge: Preemergence
Procedure, shortened: as §2

wild oat (Avena fatua) = test: Test B pre-/postemergence; conditions: for Plant response rating, Wild oats: Preemergence; for Wild oats plant response rating: Postemergence
Procedure, shortened: as §2

[16] = Rate 62 g/ha, Postemergence (flood test)
[17] = Rate 125 g/ha, Postemergence section (flood test species)

CCc1cnc(-n2ccc(C(F)(F)F)n2)nc1C(=O)c1cccc(C(F)(F)F)c1 [Compound 69]
2: Rice plant response rating (rice (Oryza sativa); [17]) | S. Flatsedge plant response rating [2, 16] | Barnyardgrass plant response rating [3, 17] | Blackgrass plant response rating ([4]; Rate 62 g/ha) | Corn plant response rating (corn (Zea mays); Rate 62 g/ha) | Corn plant response rating (corn (Zea mays); Rate 125 g/ha) | Giant foxtail plant response rating ([10]; Rate 62 g/ha) | Plant response rating, Cocklebur ([12]; Rate 125 g/ha) | Nutsedge plant response rating ([15]; Rate 62 g/ha, Postemergence)
0: Rice plant response rating (rice (Oryza sativa); [16]) | Ducksalad plant response rating [1, 16] | Plant response rating, Corn (corn (Zea mays); Rate 62 g/ha, scale of 0 to 10) | Plant response rating, Corn (corn (Zea mays); Rate 125 g/ha) | Plant response rating, Cocklebur ([12]; Rate 62 g/ha, scale of 0 to 10) | Plant response rating, Soybean (soybean (Glycine max); Rate 62 g/ha, scale of 0 to 10) | Plant response rating, Nutsedge ([15]; Rate 62 g/ha, scale of 0 to 10) | Plant response rating, Nutsedge ([15]; Rate 125 g/ha)
7: Plant response rating, Bedstraw ([7]; Rate 62 g/ha, scale of 0 to 10) | Plant response rating, Rape (rape (Brassica napus); Rate 62 g/ha, scale of 0 to 10) | Plant response rating, Wild oats (wild oat (Avena fatua); Rate 125 g/ha)
8: B. signalgrass plant response rating ([5]; Rate 62 g/ha, Preemergence) | Plant response rating, Morningglory ([8]; Rate 62 g/ha, scale of 0 to 10) | Plant response rating, Morningglory ([8]; Rate 125 g/ha) | Velvetleaf plant response rating ([9]; Rate 62 g/ha) | Velvetleaf plant response rating ([9]; Rate 125 g/ha) | Plant response rating, Velvetleaf ([9]; Rate 125 g/ha, Preemergence) | Plant response rating, Giant foxtail ([10]; Rate 125 g/ha) | Cocklebur plant response rating ([12]; Rate 62 g/ha) | Cocklebur plant response rating ([12]; Rate 125 g/ha) | Plant response rating, Redroot pigweed ([14]; Rate 62 g/ha, scale of 0 to 10) | Rape plant response rating (rape (Brassica napus); Rate 125 g/ha) | Plant response rating, Rape (rape (Brassica napus); Rate 125 g/ha)
3: Blackgrass plant response rating ([4]; Rate 125 g/ha) | B. signalgrass plant response rating ([5]; Rate 62 g/ha, Postemergence) | B. signalgrass plant response rating ([5]; Rate 125 g/ha, Postemergence) | Wheat plant response rating ([6]; Rate 62 g/ha) | Giant foxtail plant response rating ([10]; Rate 125 g/ha) | Crabgrass plant response rating ([11]; Rate 62 g/ha) | Wild oats plant response rating (wild oat (Avena fatua); Rate 62 g/ha) | Wild oats plant response rating (wild oat (Avena fatua); Rate 125 g/ha)
10: Morningglory plant response rating ([8]; Rate 125 g/ha) | Sugarbeets plant response rating ([13]; Rate 62 g/ha) | Sugarbeets plant response rating ([13]; Rate 125 g/ha) | Redroot pigweed plant response rating ([14]; Rate 62 g/ha) | Redroot pigweed plant response rating ([14]; Rate 125 g/ha) | Plant response rating, Redroot pigweed ([14]; Rate 125 g/ha)
9: Plant response rating, B. signalgrass ([5]; Rate 125 g/ha, Preemergence) | Bedstraw plant response rating ([7]; Rate 62 g/ha) | Bedstraw plant response rating ([7]; Rate 125 g/ha) | Plant response rating, Bedstraw ([7]; Rate 125 g/ha) | Morningglory plant response rating ([8]; Rate 62 g/ha) | Plant response rating, Crabgrass ([11]; Rate 125 g/ha) | Plant response rating, Sugarbeets ([13]; Rate 62 g/ha, scale of 0 to 10) | Plant response rating, Sugarbeets ([13]; Rate 125 g/ha)
6: Plant response rating, Crabgrass ([11]; Rate 62 g/ha, scale of 0 to 10) | Rape plant response rating (rape (Brassica napus); Rate 62 g/ha)
4: S. Flatsedge plant response rating [2, 17] | Plant response rating, Blackgrass ([4]; Rate 125 g/ha) | Wheat plant response rating ([6]; Rate 125 g/ha) | Plant response rating, Giant foxtail ([10]; Rate 62 g/ha, scale of 0 to 10) | Crabgrass plant response rating ([11]; Rate 125 g/ha) | Soybean plant response rating (soybean (Glycine max); Rate 62 g/ha) | Soybean plant response rating (soybean (Glycine max); Rate 125 g/ha) | Plant response rating, Wild oats (wild oat (Avena fatua); Rate 62 g/ha, scale of 0 to 10)
1: Ducksalad plant response rating [1, 17] | Barnyardgrass plant response rating [3, 16] | Plant response rating, Blackgrass ([4]; Rate 62 g/ha, scale of 0 to 10) | Plant response rating, Wheat ([6]; Rate 62 g/ha, scale of 0 to 10) | Plant response rating, Wheat ([6]; Rate 125 g/ha) | Plant response rating, Soybean (soybean (Glycine max); Rate 125 g/ha)
